The subject of the experiment is HIVLAI. Put plainly: Antiviral activity in MT-2 human-T-lymphoid cells exposed to HIVLAI. Conditions: for antiviral activity (in words): MT-2 cells exposed to HIVLAI. The format is cell-based, HIV-1.

For the compound `COc1ccc(S(=O)(=O)N(CC(C)C)C[C@@H](O)[C@H](Cc2ccccc2)NC(=O)c2cccc(Nc3nc(-c4cccnc4)cs3)c2C)cc1` [5f, N-((2S,3R)-3-hydroxy-4-((N-isobutyl-4-methoxyphenyl)sulfonamido)-1-phenylbutan-2-yl)-2-methyl-3-((4-(pyridin-3-yl)thiazol-2-yl)amino)benzamide], the “antiviral activity (in words)” value was “did not exhibit any appreciable antiviral activity”.

Regarding `Cc1ccc(C(=O)N[C@@H](Cc2cc(F)cc(F)c2)[C@H](O)CN(CC(C)C)S(=O)(=O)c2ccc(N)cc2)cc1Nc1nccc(-c2cccnc2)n1` [5d, N-((2S,3R)-4-((4-amino-N-isobutylphenyl)sulfonamido)-1-(3,5-difluorophenyl)-3-hydroxybutan-2-yl)-4-methyl-3-((4-(pyridin-3-yl)pyrimidin-2-yl)amino)benzamide], where the note is “MT-2 cells, HIVLAI, compared with 5c”, the “fold reduction in antiviral activity over compound 5c” value turned out to be 3 fold.

For the compound `COc1ccc(S(=O)(=O)N(CC(C)C)C[C@@H](O)[C@H](Cc2ccccc2)NC(=O)c2ccc(C)c(Nc3nc(C)cs3)c2)cc1` [5j, N-((2S,3R)-3-hydroxy-4-((N-isobutyl-4-methoxyphenyl)sulfonamido)-1-phenylbutan-2-yl)-4-methyl-3-((4-methylthiazol-2-yl)amino)benzamide], the “antiviral activity (in words)” value is “did not show any appreciable antiviral activity”.

The record behind these values is publication PMC10759558 (European journal of medicinal chemistry, 2023).
